Experimental data: ChEMBL document CHEMBL1201862, “PubChem BioAssay data set” (2004)
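Test compounds were applied to cells in 96-well plates for 48 hours at 5 doses. Here, GI50 denotes the concentration required for 50% inhibition of growth.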 The source made the active and inactive calls. Rule as the data show it: active = GI50 up to about 1.1 µM and inactive = higher.

What was measured:
Experiment in all cases: DTP human tumour cell line panel, 48 h
TK-10 = system: TK-10
CAKI-1 = system: CAKI-1
MDA-N = system: MDA-N
SF-539 = system: SF-539
MOLT-4 = system: MOLT-4
U-251 = system: U-251
HL-60 = system: HL-60
ACHN = system: ACHN
DMS-114 = system: DMS-114
Hs-578T = system: Hs-578T
SW-620 = system: SW-620
SNB-19 = system: SNB-19
SF-268 = system: SF-268
OVCAR-3 = system: OVCAR-3
SK-OV-3 = system: SK-OV-3
K562 = system: K562
LOX IMVI = system: LOX IMVI
SR = system: SR
HCT-116 = system: HCT-116
SK-MEL-5 = system: SK-MEL-5

Measured: GI50

CCc1nc2cc(/N=N/c3c(O)ccc4ccccc34)ccc2[nH]1
inactive: TK-10 18.4 µM | CAKI-1 22.4 µM | MDA-N 23.8 µM | SF-539 18.1 µM | MOLT-4 7.98 µM | U-251 16 µM | HL-60 2.4 µM | ACHN 17.1 µM | DMS-114 17.3 µM | Hs-578T 21.1 µM | SW-620 22.5 µM | SNB-19 31.3 µM | SF-268 22.2 µM | OVCAR-3 16.4 µM | SK-OV-3 24.7 µM | K562 8.59 µM | LOX IMVI 10.1 µM | SR 2.14 µM | HCT-116 15.5 µM | SK-MEL-5 18.5 µM

CN(CCN(C)C(=O)CCOS(C)(=O)=O)C(=O)CCOS(C)(=O)=O
inactive: TK-10 > 100 µM | CAKI-1 > 100 µM | SF-539 44.1 µM | MOLT-4 41 µM | U-251 > 100 µM | HL-60 30.9 µM | ACHN > 100 µM | DMS-114 > 100 µM | SW-620 > 100 µM | SNB-19 > 100 µM | SF-268 77.8 µM | OVCAR-3 > 100 µM | SK-OV-3 > 100 µM | K562 > 100 µM | LOX IMVI > 100 µM | SR 15.6 µM | HCT-116 > 100 µM | SK-MEL-5 > 100 µM
